The test system of data set [1] is Leishmania donovani. Description: Antileishmanial activity against axenic amastigotes of Leishmania donovani LEM-138 (MHOM/IN/00/DEVI) by MTT assay. Format: functional, organism-based.
The subject of data set [2] is Leishmania donovani. Description: Antileishmanial activity against promastigotes of Leishmania donovani LEM-138 (MHOM/IN/00/DEVI) by MTT assay. Format: functional, organism-based.
Data set [3] deals with Leishmania donovani. Description: Ratio of IC50 for promastigotes of Leishmania donovani LEM-138 (MHOM/IN/00/DEVI) to IC50 for axenic amastigotes of Leishmania donovani LEM-138 (MHOM/IN/00/DEVI). It is filed as functional.
Data set [4] can be described thus: Cytotoxicity against human PBMC assessed as cell killing at IC50 after 48 hrs by MTT assay. To be noted: PBMC (peripheral blood mononuclear cells).
The nature of data set [5]: Cytotoxicity against human PBMC assessed as cell killing at 2 times IC50 after 48 hrs by MTT assay. To be noted: PBMC (peripheral blood mononuclear cells).
The subject of data set [6] is Leishmania donovani. Description: Antileishmanial activity against amastigotes of Leishmania donovani LEM-138 (MHOM/IN/00/DEVI) infected in mouse J774A.1 cells after 72 hrs by Giemsa dye staining. It is filed as functional, organism-based. Particulars: J774.A1, 72 h.

Each structure is given as a SMILES string. pIC50: −log10 of the molar value.

Turning to `COc1ccc(C(=O)c2cc3cccc(OC)c3oc2=S)cc1`, the values for the negative logarithm of the IC50 (pIC50) with Leishmania donovani [1] and with Leishmania donovani [2] were 3.30 and 2.85, respectively. Besides, in the data set on Leishmania donovani [3], the Ratio IC50 stood at 2.8. In addition, the cell killing at 48 h in data set [4] is 16.6%; in data set [5], 14.8%.
As for `COc1cccc2cc(C(=O)c3ccc(C)cc3)c(=S)oc12`, the pIC50 was 3.35 in the data set on Leishmania donovani [1] and 3.13 in the data set on Leishmania donovani [2]. Further, the Ratio IC50 in the data set with Leishmania donovani [3] was 1.7. The cell killing at 48 h in data set [4] came out at 9.4%; in data set [5], 33.1%.
Consider `COc1cccc2cc(C(=O)c3ccc(Cl)cc3)c(=S)oc12`, for which the pIC50 was 4.14 in the data set on Leishmania donovani [1], 4.32 with Leishmania donovani [2] and 4.62 in the data set with Leishmania donovani [6]. Further, in the data set with Leishmania donovani [3], the Ratio IC50 was determined as 0.66. Further, the cell killing at 48 h in data set [4] came out at 0.46%; in data set [5], 20.2%.
Consider `COc1ccc(C(=O)c2cc3cc(Br)ccc3oc2=S)cc1`, for which the pIC50 is 3.70 in the data set with Leishmania donovani [1], 3.35 in the data set on Leishmania donovani [2] and 4.77 in the data set with Leishmania donovani [6]. Besides, the Ratio IC50 with Leishmania donovani [3] came to 2.3. Moreover, the cell killing at 48 h in data set [4] was 32.9%; in data set [5], 40.5%.
As to `COc1cccc2cc(C(=O)c3cccs3)c(=S)oc12`, the values for the pIC50 in the data set on Leishmania donovani [1] and in the data set on Leishmania donovani [2] were 3.03 and 2.37, respectively. The Ratio IC50 in the data set with Leishmania donovani [3] came out at 4.6. Besides, the cell killing at 48 h stood at 11.1% in data set [4] and 19.5% in data set [5].
On to `COc1cccc2cc(C(=O)c3ccco3)c(=S)oc12`, for which the pIC50 was 4.19 in the data set with Leishmania donovani [1], 2.91 with Leishmania donovani [2] and 4.59 in the data set on Leishmania donovani [6]. The Ratio IC50 in the data set on Leishmania donovani [3] amounted to 18.8. Moreover, the cell killing at 48 h came out at 12.3% in data set [4] and 26% in data set [5].
As to `O=C(c1ccco1)c1cc2cc(Br)ccc2oc1=S`, the results for the pIC50 in the data set with Leishmania donovani [1] and in the data set on Leishmania donovani [2] were 3.28 and 2.99, respectively. For the same compound, the Ratio IC50 in the data set on Leishmania donovani [3] turned out to be 2. The cell killing at 48 h in data set [4] is 10.7%; in data set [5] it was 17.6%.
On to `O=C(c1cccs1)c1cc2cc(Br)ccc2oc1=S`, for which the pIC50 in the data set on Leishmania donovani [1] was 4.08; in the data set on Leishmania donovani [2], 2.33. In the data set with Leishmania donovani [3], the Ratio IC50 worked out at 55.8. For the same compound, the cell killing at 48 h worked out at 10.9% in data set [4] and 6.66% in data set [5].
In the same order, the values of `COc1ccc(C(=O)c2cc3c(ccc4ccccc43)oc2=S)cc1` are 3.66, 3.47, 1.5, 15.1% and 27%.
Turning to `O=C(c1ccco1)c1cc2c(ccc3ccccc32)oc1=S`, the pIC50 with Leishmania donovani [1] is 4.43; in the data set with Leishmania donovani [2], 2.56. For the same compound, in the data set on Leishmania donovani [3], the Ratio IC50 turned out to be 75. Further, the cell killing at 48 h is 12% in data set [4] and 27.8% in data set [5].
As for `O=C(c1cccs1)c1cc2c(ccc3ccccc32)oc1=S`, the pIC50 in the data set with Leishmania donovani [1] was 4.44; in the data set on Leishmania donovani [2] it was 4.01; in the data set with Leishmania donovani [6] it was 4.66. Besides, the Ratio IC50 in the data set with Leishmania donovani [3] came to 2.7. The cell killing at 48 h in data set [4] came out at 28.8%; in data set [5], 24.6%.
Take `C[C@@H]1[C@H](O)[C@@H](C)/C=C/C=C/C=C/C=C/C=C/C=C/C=C/[C@H](O[C@@H]2O[C@H](C)[C@@H](O)[C@H](N)[C@@H]2O)C[C@@H]2O[C@](O)(C[C@@H](O)C[C@@H](O)[C@H](O)CC[C@@H](O)C[C@@H](O)CC(=O)O[C@H]1C)C[C@H](O)[C@H]2C(=O)O` [AMPHOTERICIN B]: the pIC50 was 7.21 in the data set with Leishmania donovani [1] and 6.33 in the data set on Leishmania donovani [2]. In addition, the cell killing at 48 h in data set [4] came to 16%; in data set [5], 24.4%.
